Read-outs that look alike come from different tables or passages of the source.
Columns and labels:
Aurora-1 (Aurora B) = Aurora-1 (Aurora B) (Homo sapiens, UniProt Q96GD4); test: Aurora-1 (Aurora B) inhibition assay (radiometric); format: biochemical; settings: read-out: Aurora B kinase Ki value
Protocol: An assay buffer solution was prepared which consisted of 25 mM HEPES (pH 7.5), 10 mM MgCl2, 0.1% BSA and 10% glycerol. […] To 22 μL of the Aurora-B solution, in a 96-well plate, was added 2 μl of a compound stock solution in DMSO and the mixture allowed to equilibrate for 10 minutes at 25° C. The enzyme reaction was initiated by the addition of 16 μl stock [γ-^33P]-ATP solution (˜20 nCi/μL) prepared in assay buffer, to a final assay concentration of 800 μM. The reaction was stopped after 3 hours by the addition of 16 μL 500 mM phosphoric acid and the levels of ^33P incorporation into the peptide substrate were determined by the following method.
A phosphocellulose 96-well plate (Millipore, Cat no. MAPHNOB50) was pre-treated with 100 μL of a 100 mM phosphoric acid prior to the addition of the enzyme reaction mixture (40 μL). The solution was left to soak on to the phosphocellulose membrane for 30 minutes and the plate subsequently washed four times with 200 μL of a 100 mM phosphoric acid. […] Levels of non-enzyme catalyzed background radioactivity were determined by adding 16 μL of the 500 mM phosphoric acid to control wells, containing all assay components (which acts to denature the enzyme), prior to the addition of the [γ-^33P]-ATP solution. Levels of enzyme catalyzed. ^33P incorporation were calculated by subtracting mean background counts from those measured at each inhibitor concentration. […] Ki values were calculated from initial rate data by non-linear regression using the Prism software package (Prism 3.0, Graphpad Software, San Diego, Calif.).

Aurora-2 (Aurora A) = target: T1, Aurora-2 (Aurora A) (Homo sapiens, UniProt O14965); test: Aurora-2 (Aurora A) inhibition assay, coupled enzyme; format: biochemical; settings: read-out: Aurora A kinase Ki value
T1 sequence (O14965 1-403): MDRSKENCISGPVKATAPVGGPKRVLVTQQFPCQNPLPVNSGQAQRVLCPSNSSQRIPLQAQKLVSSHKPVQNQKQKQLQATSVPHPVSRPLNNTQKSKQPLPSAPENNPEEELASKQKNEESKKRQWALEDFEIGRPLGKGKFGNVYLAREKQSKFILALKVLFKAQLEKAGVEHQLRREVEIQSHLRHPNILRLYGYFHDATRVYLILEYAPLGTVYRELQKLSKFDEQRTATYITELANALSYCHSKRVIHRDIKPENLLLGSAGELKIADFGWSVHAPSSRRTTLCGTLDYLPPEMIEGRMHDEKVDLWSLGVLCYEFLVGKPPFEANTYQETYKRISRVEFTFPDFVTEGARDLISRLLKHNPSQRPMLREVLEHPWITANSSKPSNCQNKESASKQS
Protocol: Assays were carried out in a mixture of 100 mM Hepes (pH7.5), 10 mM MgCl2, 1 mM DTT, 25 mM NaCl, 2.5 mM phosphoenolpyruvate, 300 μM NADH, 30 μg/ml pyruvate kinase and 10 μg/ml lactate dehydrogenase. […] Assays were carried out at 30° C. and in the presence of 40 nM Aurora-2.
The plate was preincubated for 10 minutes at 30° C. and the reaction initiated by addition of 10 μl of Aurora-2. Initial reaction rates were determined with a Molecular Devices SpectraMax Plus plate reader over a 10 minute time course. IC50 and Ki data were calculated from non-linear regression analysis using the Prism software package (GraphPad Prism version 3.0cx for Macintosh, GraphPad Software, San Diego Calif., USA).

FLT-3 = target: T2, FLT-3 (Homo sapiens, UniProt P36888); test: FLT-3 inhibition assay, radiometric filter-binding; format: biochemical
T2 sequence (P36888 27-993): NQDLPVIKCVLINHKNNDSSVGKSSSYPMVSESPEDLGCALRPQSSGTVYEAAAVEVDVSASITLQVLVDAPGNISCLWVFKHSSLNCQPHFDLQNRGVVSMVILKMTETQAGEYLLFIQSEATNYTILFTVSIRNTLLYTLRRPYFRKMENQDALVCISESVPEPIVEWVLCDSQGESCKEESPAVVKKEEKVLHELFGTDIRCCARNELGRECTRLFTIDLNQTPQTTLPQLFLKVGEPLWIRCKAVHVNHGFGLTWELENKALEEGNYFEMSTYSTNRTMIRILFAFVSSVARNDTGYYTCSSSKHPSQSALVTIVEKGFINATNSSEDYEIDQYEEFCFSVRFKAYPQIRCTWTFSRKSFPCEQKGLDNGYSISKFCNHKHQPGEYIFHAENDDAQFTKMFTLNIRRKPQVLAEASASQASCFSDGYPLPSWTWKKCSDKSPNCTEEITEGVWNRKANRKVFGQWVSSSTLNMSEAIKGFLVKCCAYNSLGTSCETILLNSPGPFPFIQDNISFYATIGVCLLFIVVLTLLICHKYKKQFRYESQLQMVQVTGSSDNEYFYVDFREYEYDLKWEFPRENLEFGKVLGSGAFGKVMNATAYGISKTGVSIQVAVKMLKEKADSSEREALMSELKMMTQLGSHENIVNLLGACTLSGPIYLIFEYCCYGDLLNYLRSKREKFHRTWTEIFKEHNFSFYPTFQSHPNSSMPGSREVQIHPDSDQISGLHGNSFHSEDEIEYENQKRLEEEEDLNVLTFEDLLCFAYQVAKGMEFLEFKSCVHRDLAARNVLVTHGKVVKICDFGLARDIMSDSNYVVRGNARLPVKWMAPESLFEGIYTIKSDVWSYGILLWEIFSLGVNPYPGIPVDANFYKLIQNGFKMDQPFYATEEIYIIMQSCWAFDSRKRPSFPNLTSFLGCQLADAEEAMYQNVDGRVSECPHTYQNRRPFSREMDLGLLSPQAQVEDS
Protocol: This assay monitors the 33P incorporation into a substrate poly(Glu, Tyr) 4:1 (pE4Y). […] Final substrate concentrations in the assay were 90 μM ATP and 0.5 mg/ml pE4Y (both from Sigma Chemicals, St. Louis, Mo.). […] Reactions were carried out at room temperature.
Two assay solutions were prepared. Solution 1 contains 100 mM HEPES (pH 7.5), 10 mM MgCl2, 25 mM NaCl, 1 mg/ml pE4Y and […] (containing 0.3 mCi of [γ-33^P]ATP for each reaction). Solution 2 contains 100 mM HEPES (pH 7.5), 10 mM MgCl2, 25 mM NaCl, 2 mM DTT, 0.02% BSA and 3 nM FLT-3. The assay was run on a 96 well plate by mixing 50 μl each of Solution 1 and […] of the compounds of the present invention. The reaction was initiated with Solution 2. […] All of the reaction volume was then transferred to a filter plate and washed with 5% TCA by a Harvester 9600 from TOMTEC (Hamden, Conn.). The amount of ^33P incorporation into pE4y was analyzed by a Packard Top Count Microplate Scintillation Counter (Meriden, Conn.). The data was fitted using Prism software to get an IC50 or Ki.

Colo205 cells = test: Analysis of cell proliferation and viability; format: cell-based; settings: Homo sapiens, COLO 205, Colo205 cells, read-out: IC50 value
Protocol: Colo205 cells were seeded in 96 well plates and serially diluted compound was added to the wells in duplicate. Control groups included untreated cells, the compound diluent (0.1% DMSO alone) and culture medium without cells.
To measure proliferation, 3 h prior to the end of the experiment 0.5 μCi of 3H thymidine was added to each well. Cells were then harvested and the incorporated radioactivity counted on a Wallac microplate beta-counter. Cell viability was assessed using Promega CellTiter 96AQ to measure MTS conversion. Dose response curves were calculated using either Prism 3.0 (GraphPad) or SoftMax Pro 4.3.1 LS (Molecular Devices) software.

JAK3 = target: T3, JAK3 (Homo sapiens, UniProt P52333); test: biochemical
T3 sequence (P52333 1-1124): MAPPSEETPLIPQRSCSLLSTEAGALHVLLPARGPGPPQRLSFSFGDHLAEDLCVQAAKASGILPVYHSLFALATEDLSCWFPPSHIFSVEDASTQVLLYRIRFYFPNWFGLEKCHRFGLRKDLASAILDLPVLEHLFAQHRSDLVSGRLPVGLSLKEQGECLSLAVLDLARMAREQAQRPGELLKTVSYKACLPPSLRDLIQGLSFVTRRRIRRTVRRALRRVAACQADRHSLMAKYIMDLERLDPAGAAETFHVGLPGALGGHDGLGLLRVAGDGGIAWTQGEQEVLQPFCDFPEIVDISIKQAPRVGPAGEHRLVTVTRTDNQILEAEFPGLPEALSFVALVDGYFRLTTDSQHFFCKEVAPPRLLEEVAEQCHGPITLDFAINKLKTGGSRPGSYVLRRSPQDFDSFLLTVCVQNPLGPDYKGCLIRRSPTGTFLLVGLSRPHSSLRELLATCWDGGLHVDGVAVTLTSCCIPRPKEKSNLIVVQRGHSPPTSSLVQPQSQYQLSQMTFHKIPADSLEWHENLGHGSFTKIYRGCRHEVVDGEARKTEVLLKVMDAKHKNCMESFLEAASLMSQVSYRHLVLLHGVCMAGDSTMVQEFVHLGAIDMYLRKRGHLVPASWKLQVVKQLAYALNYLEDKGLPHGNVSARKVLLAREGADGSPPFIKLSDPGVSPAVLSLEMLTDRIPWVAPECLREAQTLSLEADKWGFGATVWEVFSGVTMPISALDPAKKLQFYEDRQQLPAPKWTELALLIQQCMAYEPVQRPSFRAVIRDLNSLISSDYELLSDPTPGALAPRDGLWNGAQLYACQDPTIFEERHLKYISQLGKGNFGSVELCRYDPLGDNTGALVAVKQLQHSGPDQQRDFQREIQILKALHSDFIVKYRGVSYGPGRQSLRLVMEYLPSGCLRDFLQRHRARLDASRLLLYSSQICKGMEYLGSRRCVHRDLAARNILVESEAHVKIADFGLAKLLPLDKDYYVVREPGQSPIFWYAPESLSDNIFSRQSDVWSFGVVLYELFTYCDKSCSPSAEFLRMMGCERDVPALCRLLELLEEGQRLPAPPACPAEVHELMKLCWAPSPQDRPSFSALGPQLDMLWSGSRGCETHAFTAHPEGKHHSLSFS

Aurora-1 (Aurora B), sequence (Q96GD4 whole entry): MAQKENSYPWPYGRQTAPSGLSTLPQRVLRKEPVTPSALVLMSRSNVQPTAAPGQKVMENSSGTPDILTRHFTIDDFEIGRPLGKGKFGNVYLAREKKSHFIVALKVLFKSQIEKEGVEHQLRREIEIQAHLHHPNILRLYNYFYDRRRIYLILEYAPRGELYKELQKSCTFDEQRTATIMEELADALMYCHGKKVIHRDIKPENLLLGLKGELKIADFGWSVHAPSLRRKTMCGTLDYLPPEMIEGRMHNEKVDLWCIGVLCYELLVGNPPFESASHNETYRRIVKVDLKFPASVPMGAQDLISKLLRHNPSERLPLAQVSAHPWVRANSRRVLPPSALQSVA

| Ki (Aurora-2 (Aurora A)) | Ki (FLT-3; read-out: FLT-3 Ki value) | SMILES | Ki (Aurora-1 (Aurora B)) | IC50 (Colo205 cells; incubated for 72 hours) | Ki (FLT-3) | Ki (JAK3) | IC50 (Colo205 cells; incubated for 96 hours) | Ki (JAK3; read-out: JAK3 Ki value) |
| --- | --- | --- | --- | --- | --- | --- | --- | --- |
| 1 to 5 nM | 150 to 1000 nM | Cc1cc(Nc2cc(N3CCC3)nc(Sc3ccc(NC(=O)C4(C(F)(F)F)CC4)cc3)n2)[nH]n1 [Compound 142] | ≤ 10 nM | 30 to 200 nM | – | – | – | – |
| – | – | Cc1cc(Nc2cc(CN3CCC3)nc(Sc3ccc(NC(=O)c4ccccc4C(F)(F)F)cc3)n2)[nH]n1 [Compound 132] | 10 to 50 nM | > 200 nM | 150 to 1000 nM | 500 to 2000 nM | 50 to 1000 nM | – |
| – | – | Cc1cc(Nc2cc(N3CCC3)nc(Sc3ccc(N(C)C(=O)c4c(F)cccc4F)cc3)n2)n[nH]1 [Compound 11] | 50 to 2000 nM | – | 150 to 1000 nM | 10 to 500 nM | 50 to 1000 nM | – |
| 5 to 200 nM | 150 to 1000 nM | Cc1cc(Nc2cc(N3CCC3)nc(Sc3ccc(NC(=O)c4ccc(CN5CCC5)cc4)cc3)n2)[nH]n1 [Compound 139] | 50 to 2000 nM | – | – | – | 50 to 1000 nM | – |
| – | – | Cc1cc(Nc2cc(N3CC(N4CCOCC4)C3)nc(Sc3ccc4nc(C(F)(F)F)n(C)c4c3)n2)[nH]n1 [Compound 195] | ≤ 10 nM | 30 to 200 nM | 150 to 1000 nM | 10 to 500 nM | – | – |
| 1 to 5 nM | 150 to 1000 nM | Cc1cc(Nc2cc(N3CC(F)(C4CC4)C3)nc(Sc3ccc(NC(=O)[C@H]4CCCN4C(C)C)cc3)n2)[nH]n1 [Compound 193] | 50 to 2000 nM | > 200 nM | – | – | – | – |
| – | – | Cc1cc(Nc2cc(N3CC(F)(C4CC4)C3)nc(Sc3ccc4ccn(CC(F)(F)F)c(=O)c4c3)n2)[nH]n1 [Compound 189] | 50 to 2000 nM | > 200 nM | 50 to 150 nM | – | – | 10 to 500 nM |

From patent US8637511B2, “Aminopyrimidines useful as kinase inhibitors” (Vertex Pharmaceuticals Incorporated, priority 2005, dated 2014)
